In patent publication US11439709B2, “Phospholipid ether analogs as cancer-targeting drug vehicles” (Cellectar Biosciences, Inc., priority 2014, dated 2022):

Key:
[1] = tested on: MDA-MB-468, NCI-H1299, NCI-H460, Capan-2, MiaPaCa-1, HT29, HCT116 and PC-3 cancer cell lines; test: Cell viability of the cancer cell line panel (result in words); format: cell-based; conditions: eight cancer cell lines, serial concentrations
Experimental: (§1) The cell lines were then measured for cell viability and reported as IC50 for each treatment.

[2] = tested on: MDA-MB-468 cells; test: Annexin V / PI flow cytometry, MDA-MB-468 cells
Experimental: (§2) Annexin V and PI ([…]) staining by flow cytometry was utilized to determine percentages of live, early apoptotic, late apoptotic, and necrotic cells. In short, cells were treated with cytotoxic agents and stained with an Annexin V/P1 labeling kit (Life Technologies). Cells were analyzed on an LSRII flow cytometer (BD Biosciences). As shown in Tables 3-9, cells were classified as: Live (Annexin V negative, PI negative), Early apoptotic (Annexin V positive, PI negative), Late apoptotic (Annexin V positive, PI positive), and Necrotic. (Annexin V negative, PI positive). […] Annexin V (attached to AlexaFluor 488) is shown on the x-axis, while PI is shown on the y-axis. The lower left quadrant indicates live cells, the upper left quadrant indicates necrotic cells, the upper right quadrant indicates late apoptotic cells and the lower right quadrant indicates early apoptotic cells. Debris was eliminated from this analysis.

[3] = tested on: COLO 829 cells; test: Annexin V / PI flow cytometry, COLO 829 cells; format: cell-based
Experimental: as §2

[4] = tested on: PANC-1 cells; test: Annexin V / PI flow cytometry, PANC-1 cells; format: cell-based; conditions: GEL for 48 hours
Experimental: as §2

[5] = tested on: 22RV1 cells; test: Annexin V / PI flow cytometry, 22RV1 cells; format: cell-based; conditions: GEL for 48 hours
Experimental: as §2

[6] = tested on: Capan-2 (Pancreas); test: cells; format: cell-based; conditions: cell viability
Experimental: as §1

[7] = tested on: HCT116 (Colorectal); test: cells; format: cell-based
Experimental: as §1

[8] = tested on: HT29 (Colorectal); test: cells; format: cell-based
Experimental: as §1

[9] = tested on: MDA-MB-468 (Breast); test: cells; format: cell-based; conditions: cell viability
Experimental: as §1

[10] = tested on: MiaPaCa-1 (Pancreas); test: cells; format: cell-based; conditions: cell viability
Experimental: as §1

[11] = tested on: NCI-H1299 (Lung); test: cells; format: cell-based; conditions: NCI-HI1299 (Lung), cell viability
Experimental: as §1

[12] = tested on: NCI-H460 (Lung); test: cells; format: cell-based; conditions: cell viability
Experimental: as §1

[13] = tested on: PC-3 (Prostate); test: cells; format: cell-based; conditions: cell viability
Experimental: as §1

[14] = 1 uM, GEL for 48 hours, Table 4 titled 72 Hours
[15] = 100 nM, GEL for 48 hours, Table 5
[16] = 1 uM, GEL for 48 hours, Table 5
[17] = 100 nM, PTX for 24 hours, Table 3 titled 72 Hours
[18] = 1 uM, PTX for 24 hours, Table 3 titled 72 Hours

## CC(=O)O[C@H]1C(=O)[C@@]2(C)[C@H]([C@H](OC(=O)c3ccccc3)[C@]3(O)C[C@H](OC(=O)[C@H](OC(=O)OCCCCC(=O)Nc4ccc(CCCCCCCCCCCCCCCCCCOP(=O)([O-])OCC[N+](C)(C)C)cc4)[C@@H](NC(=O)c4ccccc4)c4ccccc4)C(C)=C1C3(C)C)[C@]1(OC(C)=O)CO[C@@H]1C[C@@H]2O [CLR1603]
[1]
  reduction of cancer cell line viability: capable of reducing cell viability
[2]; 1 uM, 48 hrs (Table 8)
  Early Apoptotic: 1.4 % of total cells
  Late Apoptotic: 4.78 % of total cells
  Live (cell viability): 81.4 % of total cells
  Necrotic: 12.4 % of total cells
[2]; 1 uM, 72 hrs
  Early Apoptotic: 6.74 % of total cells
  Late Apoptotic: 49.1 % of total cells
  Live (cell viability): 22.2 % of total cells
  Necrotic: 22 % of total cells
[2]; 5 uM, 72 hrs
  Early Apoptotic: 2.65 % of total cells
  Late Apoptotic: 55.2 % of total cells
  Live (cell viability): 19.7 % of total cells
  Necrotic: 22.5 % of total cells

## CC(=O)O[C@H]1C(=O)[C@]2(C)[C@@H](OC(=O)NCCCC(=O)Nc3ccc(CCCCCCCCCCCCCCCCCCOP(=O)([O-])OCC[N+](C)(C)C)cc3)C[C@H]3OC[C@@]3(OC(C)=O)[C@H]2[C@H](OC(=O)c2ccccc2)[C@]2(O)C[C@H](OC(=O)[C@H](O)[C@@H](NC(=O)c3ccccc3)c3ccccc3)C(C)=C1C2(C)C [CLR1602]
[1]
  reduction of cancer cell line viability: not capable of significantly reducing cancer cell line viability

## COC1=C2C[C@@H](C)C[C@H](OC)[C@H](O)[C@@H](C)/C=C(\C)[C@H](OC(N)=O)[C@@H](OC)/C=C\C=C(/C)C(=O)NC(=CC1=O)C2=O [GEL, geldanamycin]
[2]; [14]
  Early Apoptotic: 19.6 % of total cells
  Late Apoptotic: 37.9 % of total cells
  Live (cell viability): 26.2 % of total cells
  Necrotic: 16.3 % of total cells
[3]; 100 nM, 48 hrs (Table 9)
  Early Apoptotic: 12.2 % of total cells
  Late Apoptotic: 29 % of total cells
  Live (cell viability): 36.1 % of total cells
  Necrotic: 22.7 % of total cells
[3]; [15]
  Early Apoptotic: 21.9 % of total cells
  Late Apoptotic: 40.8 % of total cells
  Live (cell viability): 32.4 % of total cells
  Necrotic: 4.9 % of total cells
[3]; 1 uM, 48 hrs (Table 9)
  Early Apoptotic: 14.4 % of total cells
  Late Apoptotic: 38.3 % of total cells
  Live (cell viability): 24.6 % of total cells
  Necrotic: 22.7 % of total cells
[3]; [16]
  Early Apoptotic: 21.4 % of total cells
  Late Apoptotic: 53.7 % of total cells
  Live (cell viability): 18.6 % of total cells
  Necrotic: 6.42 % of total cells
[4]; 100 nM
  Early Apoptotic: 4.68 % of total cells
  Late Apoptotic: 12.6 % of total cells
  Live (cell viability): 23.3 % of total cells
  Necrotic: 59.4 % of total cells
[4]; 1 uM
  Early Apoptotic: 1.93 % of total cells
  Late Apoptotic: 12.8 % of total cells
  Live (cell viability): 18.9 % of total cells
  Necrotic: 66.4 % of total cells
[5]; 100 nM
  Early Apoptotic: 5.09 % of total cells
  Late Apoptotic: 28.4 % of total cells
  Live (cell viability): 19.4 % of total cells
  Necrotic: 47.1 % of total cells
[5]; 1 uM
  Early Apoptotic: 6.22 % of total cells
  Late Apoptotic: 19.1 % of total cells
  Live (cell viability): 28.1 % of total cells
  Necrotic: 46.6 % of total cells

## CC(=O)O[C@H]1C(=O)[C@@]2(C)[C@H]([C@H](OC(=O)c3ccccc3)[C@]3(O)C[C@H](OC(=O)[C@H](O)[C@@H](NC(=O)c4ccccc4)c4ccccc4)C(C)=C1C3(C)C)[C@]1(OC(C)=O)CO[C@@H]1C[C@@H]2O [Paclitaxel, paclitaxel]
[6]; Homo sapiens
  IC50: 7.91 nM
[7]; Homo sapiens, HCT-116, cell viability
  IC50: 0.87 nM
[8]; Homo sapiens, HT-29, cell viability
  IC50: 1.07 nM
[9]; Homo sapiens
  IC50: 1.9 nM
[10]
  IC50: 1.32 nM
[11]; Homo sapiens, NCI-H1299
  IC50: 1.82 nM
[12]; Homo sapiens
  IC50: 1.66 nM
[13]
  IC50: 0.9 nM
[2]; 100 nM, 48 hrs (Table 8)
  Early Apoptotic: 2.47 % of total cells
  Late Apoptotic: 5.54 % of total cells
  Live (cell viability): 77.9 % of total cells
  Necrotic: 14.1 % of total cells
[2]; [17]
  Early Apoptotic: 5.9 % of total cells
  Late Apoptotic: 31.4 % of total cells
  Live (cell viability): 53.8 % of total cells
  Necrotic: 8.89 % of total cells
[2]; 1 uM, 48 hrs (Table 8)
  Early Apoptotic: 1.97 % of total cells
  Late Apoptotic: 9.18 % of total cells
  Live (cell viability): 73.3 % of total cells
  Necrotic: 15.6 % of total cells
[2]; [18]
  Early Apoptotic: 5.5 % of total cells
  Late Apoptotic: 34.8 % of total cells
  Live (cell viability): 48.9 % of total cells
  Necrotic: 10.8 % of total cells

## CC(=O)O[C@H]1C(=O)[C@@]2(C)[C@H]([C@H](OC(=O)c3ccccc3)[C@]3(O)C[C@H](OC(=O)[C@H](OC(=O)CCCC(=O)Nc4ccc(CCCCCCCCCCCCCCCCCCOP(=O)([O-])OCC[N+](C)(C)C)cc4)[C@@H](NC(=O)c4ccccc4)c4ccccc4)C(C)=C1C3(C)C)[C@]1(OC(C)=O)CO[C@@H]1C[C@@H]2O [CLR1601]
[6]
  IC50: 56.7 nM
[7]; cell viability
  IC50: 7.6 nM
[8]; cell viability
  IC50: 92.2 nM
[9]
  IC50: 3.77 nM
[10]
  IC50: 37.3 nM
[11]
  IC50: 60.3 nM
[12]
  IC50: 29.5 nM
[13]
  IC50: 34.4 nM
[1]
  reduction of cancer cell line viability: capable of reducing cell viability
[2]; 1 uM, 48 hrs (Table 8)
  Early Apoptotic: 1.49 % of total cells
  Late Apoptotic: 6 % of total cells
  Live (cell viability): 79.4 % of total cells
  Necrotic: 13.1 % of total cells
[2]; 1 uM, 72 hrs
  Early Apoptotic: 9.8 % of total cells
  Late Apoptotic: 57.5 % of total cells
  Live (cell viability): 17 % of total cells
  Necrotic: 15.8 % of total cells
[2]; 5 uM, 72 hrs
  Early Apoptotic: 2.71 % of total cells
  Late Apoptotic: 57.9 % of total cells
  Live (cell viability): 17.8 % of total cells
  Necrotic: 21.6 % of total cells
